Tests used:
Trypanosoma cruzi [1] = assay: microbe, parasite or virus in culture; format: functional, organism-based, Tulahuen LacZ, Clone C4; conditions: Trypanosoma cruzi, Tulahuen LacZ, Clone C4
[2] = DNDI: Cytotoxicity against L-6 rat myoblasts from skeletal muscle cells; conditions: L6 rat skeletal muscle myoblast cells
Trypanosoma cruzi [3] = assay: microbe, parasite or virus in culture; format: functional, Tulahuen LacZ, Clone C4; conditions: Trypanosoma cruzi, Tulahuen LacZ, Clone C4

## CC(C)(C)OC(=O)N1CCC(NC(c2ccc(C(F)(F)F)cc2)c2cnccn2)CC1 (centres undefined)
Trypanosoma cruzi [1]
  IC50: 58 nM
[2]; IC50
  IC50: 62800 nM
Trypanosoma cruzi [3]
  IC90: 140 nM

## Clc1ccc(C(c2cccnc2)n2cccn2)cc1 (centres undefined)
Trypanosoma cruzi [1]
  IC50: 290 nM
[2]; IC50
  IC50: > 100000 nM
Trypanosoma cruzi [3]
  IC90: 570 nM

## OC(c1ccc(Cl)cc1)(c1cncnc1)c1ccc(Cl)cc1F (centres undefined)
Trypanosoma cruzi [1]
  IC50: 52 nM
[2]; IC50
  IC50: 54100 nM
Trypanosoma cruzi [3]
  IC90: 450 nM

## Cc1ccc(C(O)(c2cccnc2)c2ccccc2Cl)cc1 (centres undefined)
Trypanosoma cruzi [1]
  IC50: 70 nM
[2]
  IC50: > 100000 nM
Trypanosoma cruzi [3]
  IC90: 160 nM

## CCCCC(NCC1CCCCC1)c1cccnc1 (centres undefined)
Trypanosoma cruzi [1]
  IC50: 450 nM
[2]; IC50
  IC50: > 100000 nM
Trypanosoma cruzi [3]
  IC90: 700 nM

## CN(C)C(=O)C1CCN(C(c2ccc(C(F)(F)F)cc2)c2cnccn2)CC1 (centres undefined)
Trypanosoma cruzi [1]
  IC50: 1010 nM
[2]; IC50
  IC50: > 100000 nM
Trypanosoma cruzi [3]
  IC90: 3410 nM

## OC(c1ccc(Cl)cc1)(c1cccnc1)c1cc(F)ccc1F (centres undefined)
Trypanosoma cruzi [1]
  IC50: 44 nM
[2]
  IC50: > 100000 nM
Trypanosoma cruzi [3]
  IC90: 108 nM

## CC(C)Oc1ncc(C(O)(c2ccc(Cl)cc2)c2cccnc2)cn1 (centres undefined)
Trypanosoma cruzi [1]
  IC50: 60 nM
[2]; IC50
  IC50: > 100000 nM
Trypanosoma cruzi [3]
  IC90: 230 nM

## CSc1ncc(C(O)(c2ccc(Cl)cc2)c2cccnc2)cn1 (centres undefined)
Trypanosoma cruzi [1]
  IC50: 288 nM
[2]; IC50
  IC50: > 100000 nM
Trypanosoma cruzi [3]
  IC90: 600 nM

## OC(c1ccc(Cl)cc1)(c1cccnc1)c1c(F)cccc1F (centres undefined)
Trypanosoma cruzi [1]
  IC50: 80 nM
[2]
  IC50: > 100000 nM
Trypanosoma cruzi [3]
  IC90: 182 nM

## CS(=O)(=O)N1CCN(C(c2ccc(Cl)cc2)c2cccnc2)CC1 (centres undefined)
Trypanosoma cruzi [1]
  IC50: 110 nM
[2]; IC50
  IC50: > 100000 nM
Trypanosoma cruzi [3]
  IC90: 216 nM

## CN(C)CCOc1ncc(C(O)(c2ccc(Cl)cc2)c2cccnc2)cn1 (centres undefined)
Trypanosoma cruzi [1]
  IC50: > 1000 nM
[2]; IC50
  IC50: > 100000 nM
Trypanosoma cruzi [3]
  IC90: > 1000 nM

## N#Cc1ccc(C(O)(c2ccc(Cl)cc2)c2cccnc2)cc1 (centres undefined)
Trypanosoma cruzi [1]
  IC50: 59 nM
[2]; IC50
  IC50: > 100000 nM
Trypanosoma cruzi [3]
  IC90: 160 nM

## CC(C)CC(=O)N1CCN(C(c2ccc(Cl)cc2)c2cccnc2)CC1 (centres undefined)
Trypanosoma cruzi [1]
  IC50: 55 nM
[2]; IC50
  IC50: > 100000 nM
Trypanosoma cruzi [3]
  IC90: 180 nM

## Cc1ccsc1C(O)(c1ccc(Cl)cc1)c1cccnc1 (centres undefined)
Trypanosoma cruzi [1]
  IC50: 20 nM
[2]; IC50
  IC50: 74200 nM
Trypanosoma cruzi [3]
  IC90: 90 nM

## NC(=O)c1ccc(C(O)(c2ccc(Cl)cc2)c2cccnc2)c(F)c1 (centres undefined)
Trypanosoma cruzi [1]
  IC50: 660 nM
[2]; IC50
  IC50: > 100000 nM
Trypanosoma cruzi [3]
  IC90: 790 nM

## Fc1ccccc1C(c1ccc(C(F)(F)F)cc1)c1cccnc1 (centres undefined)
Trypanosoma cruzi [1]
  IC50: 150 nM
[2]
  IC50: 64000 nM
Trypanosoma cruzi [3]
  IC90: 510 nM

## OC(c1cccnc1)(c1ccccc1Cl)c1ccccc1C(F)(F)F (centres undefined)
Trypanosoma cruzi [1]
  IC50: 297 nM
[2]
  IC50: > 100000 nM
Trypanosoma cruzi [3]
  IC90: 724 nM

## CC(C)C(=O)NC(c1ccc(C(F)(F)F)cc1)c1cnccn1 (centres undefined)
Trypanosoma cruzi [1]
  IC50: > 10000 nM
[2]; IC50
  IC50: > 100000 nM
Trypanosoma cruzi [3]
  IC90: > 10000 nM

## OC(c1ccc(C(F)(F)F)cc1)(c1cccnc1)c1ccc(Cl)cc1F (centres undefined)
Trypanosoma cruzi [1]
  IC50: 1.77 nM
[2]
  IC50: > 100000 nM
Trypanosoma cruzi [3]
  IC90: 5 nM

## OC(c1ccc(Cl)cc1)(c1ccc(Cl)cc1)c1cccc(F)c1
Trypanosoma cruzi [1]
  IC50: 560 nM
[2]; IC50
  IC50: 53200 nM
Trypanosoma cruzi [3]
  IC90: 840 nM

## N#CC(c1ccc(Cl)cc1)c1ccccn1 (centres undefined)
Trypanosoma cruzi [1]
  IC50: > 1000 nM
[2]; IC50
  IC50: > 100000 nM
Trypanosoma cruzi [3]
  IC90: > 1000 nM

## OC(c1ccc(Cl)cc1)c1cccnc1 (centres undefined)
Trypanosoma cruzi [1]
  IC50: 4750 nM
[2]; IC50
  IC50: > 100000 nM
Trypanosoma cruzi [3]
  IC90: > 10000 nM

## CC(C)CNC(c1ccc(C(F)(F)F)cc1)c1cnccn1 (centres undefined)
Trypanosoma cruzi [1]
  IC50: 800 nM
[2]; IC50
  IC50: > 100000 nM
Trypanosoma cruzi [3]
  IC90: 2100 nM

## OC(c1ccc(Cl)cc1)(c1cncnc1)c1cscn1 (centres undefined)
Trypanosoma cruzi [1]
  IC50: 251 nM
[2]; IC50
  IC50: > 100000 nM
Trypanosoma cruzi [3]
  IC90: 650 nM

## O=C1CCCN1CCCNC(c1ccc(Cl)cc1)c1cccnc1 (centres undefined)
Trypanosoma cruzi [1]
  IC50: 378 nM
[2]; IC50
  IC50: > 100000 nM
Trypanosoma cruzi [3]
  IC90: 820 nM

## O=C(NC(c1ccc(C(F)(F)F)cc1)c1cnccn1)C1CC1 (centres undefined)
Trypanosoma cruzi [1]
  IC50: > 10000 nM
[2]; IC50
  IC50: > 100000 nM
Trypanosoma cruzi [3]
  IC90: > 10000 nM

## OC(c1ccc(Cl)cc1)(c1cccnc1)c1cncs1 (centres undefined)
Trypanosoma cruzi [1]
  IC50: 140 nM
[2]; IC50
  IC50: > 100000 nM
Trypanosoma cruzi [3]
  IC90: 500 nM

## FC(F)(F)c1ccc(C(NCC2CCCCC2)c2cccnc2)cc1 (centres undefined)
Trypanosoma cruzi [1]
  IC50: 110 nM
[2]; IC50
  IC50: 54000 nM
Trypanosoma cruzi [3]
  IC90: 220 nM

## Cc1noc(C)c1C(O)(c1ccc(Cl)cc1)c1ccc(C(F)(F)F)cc1 (centres undefined)
Trypanosoma cruzi [1]
  IC50: > 1000 nM
[2]; IC50
  IC50: 57900 nM
Trypanosoma cruzi [3]
  IC90: > 1000 nM

## OC1CCN(C(c2ccc(Cl)cc2)c2cccnc2)CC1 (centres undefined)
Trypanosoma cruzi [1]
  IC50: 800 nM
[2]; IC50
  IC50: > 100000 nM
Trypanosoma cruzi [3]
  IC90: > 1000 nM

## OC(c1cccnc1)(c1cnc(Cl)nc1)c1ccc(Cl)cc1F (centres undefined)
Trypanosoma cruzi [1]
  IC50: 179 nM
[2]; IC50
  IC50: > 100000 nM
Trypanosoma cruzi [3]
  IC90: 630 nM

## O=C(NC(c1ccc(C(F)(F)F)cc1)c1cnccn1)C1CCCCC1 (centres undefined)
Trypanosoma cruzi [1]
  IC50: 1570 nM
[2]; IC50
  IC50: > 100000 nM
Trypanosoma cruzi [3]
  IC90: 4790 nM

## CON=C(Cc1ccc(Cl)cc1Cl)c1cccnc1
Trypanosoma cruzi [1]
  IC50: 2140 nM
[2]; IC50
  IC50: 91300 nM
Trypanosoma cruzi [3]
  IC90: 4870 nM

## Clc1ccc(C(c2cccnc2)c2cccs2)cc1 (centres undefined)
Trypanosoma cruzi [1]
  IC50: 17 nM
[2]; IC50
  IC50: > 100000 nM
Trypanosoma cruzi [3]
  IC90: 45 nM

## CC(C)C(=O)N1CCN(C(c2cccnc2)c2ccc(Cl)cc2F)CC1 (centres undefined)
Trypanosoma cruzi [1]
  IC50: 62 nM
[2]; IC50
  IC50: > 100000 nM
Trypanosoma cruzi [3]
  IC90: 220 nM

## CC(=O)NC(c1ccc(C(F)(F)F)cc1)c1cnccn1 (centres undefined)
Trypanosoma cruzi [1]
  IC50: > 10000 nM
[2]; IC50
  IC50: > 100000 nM
Trypanosoma cruzi [3]
  IC90: > 10000 nM

## NC(=O)C1CCN(C(c2ccc(C(F)(F)F)cc2)c2cnccn2)CC1 (centres undefined)
Trypanosoma cruzi [1]
  IC50: 6410 nM
[2]; IC50
  IC50: > 100000 nM
Trypanosoma cruzi [3]
  IC90: > 10000 nM
